ChEMBL document CHEMBL5625277, “Systematical mutational analysis of teriparatide on anti-osteoporosis activity by alanine scanning” (Bioorg Med Chem Lett, 2024)

Experiment: Cytotoxicity in pre-osteoblasts (unknown origin) assessed as cell death upto 5 uM by CCK8 assay
Format: toxicity, cell-based
Conditions: pre-osteoblast

**Q.** Which Activity does the source give for `CC[C@H](C)[C@H](NC(=O)[C@H](CCC(=O)O)NC(=O)[C@H](CO)NC(=O)[C@@H](NC(=O)[C@H](CO)NC(C)=O)C(C)C)C(=O)N[C@@H](CCC(N)=O)C(=O)N[C@@H](CC(C)C)C(=O)N[C@@H](CCSC)C(=O)N[C@@H](Cc1cnc[nH]1)C(=O)N[C@@H](CC(N)=O)C(=O)N[C@@H](CC(C)C)C(=O)NCC(=O)N[C@@H](CCCCN)C(=O)N[C@@H](Cc1cnc[nH]1)C(=O)N[C@@H](CC(C)C)C(=O)N[C@@H](CC(N)=O)C(=O)N[C@@H](CO)C(=O)N[C@@H](CCSC)C(=O)N[C@@H](CCC(=O)O)C(=O)N[C@@H](CCCNC(=N)N)C(=O)N[C@H](C(=O)N[C@@H](CCC(=O)O)C(=O)N[C@@H](Cc1c[nH]c2ccccc12)C(=O)N[C@@H](CC(C)C)C(=O)N[C@@H](CCCNC(=N)N)C(=O)N[C@@H](C)C(=O)N[C@@H](CCCCN)C(=O)N[C@@H](CC(C)C)C(=O)N[C@@H](CCC(N)=O)C(=O)N[C@@H](CC(=O)O)C(=O)N[C@H](C(=O)N[C@@H](Cc1cnc[nH]1)C(=O)N[C@@H](CC(N)=O)C(=O)N[C@@H](Cc1ccccc1)C(N)=O)C(C)C)C(C)C` here?
**A.** Non-Toxic

**Q.** With `CC[C@H](C)[C@H](NC(=O)[C@H](CCC(=O)O)NC(=O)[C@H](CO)NC(=O)[C@@H](NC(=O)[C@H](CO)NC(C)=O)C(C)C)C(=O)N[C@@H](CCC(N)=O)C(=O)N[C@@H](CC(C)C)C(=O)N[C@@H](CCSC)C(=O)N[C@@H](Cc1cnc[nH]1)C(=O)N[C@@H](CC(N)=O)C(=O)N[C@@H](CC(C)C)C(=O)NCC(=O)N[C@@H](CCCCN)C(=O)N[C@@H](Cc1cnc[nH]1)C(=O)N[C@@H](C)C(=O)N[C@@H](CC(N)=O)C(=O)N[C@@H](CO)C(=O)N[C@@H](CCSC)C(=O)N[C@@H](CCC(=O)O)C(=O)N[C@@H](CCCNC(=N)N)C(=O)N[C@H](C(=O)N[C@@H](CCC(=O)O)C(=O)N[C@@H](Cc1c[nH]c2ccccc12)C(=O)N[C@@H](CC(C)C)C(=O)N[C@@H](CCCNC(=N)N)C(=O)N[C@@H](CCCCN)C(=O)N[C@@H](CCCCN)C(=O)N[C@@H](CC(C)C)C(=O)N[C@@H](CCC(N)=O)C(=O)N[C@@H](CC(=O)O)C(=O)N[C@H](C(=O)N[C@@H](Cc1cnc[nH]1)C(=O)N[C@@H](CC(N)=O)C(=O)N[C@@H](Cc1ccccc1)C(N)=O)C(C)C)C(C)C` as the molecule, how does the Activity read?
**A.** Non-Toxic

**Q.** For `CC[C@H](C)[C@H](NC(=O)[C@H](CCC(=O)O)NC(=O)[C@H](CO)NC(=O)[C@@H](NC(=O)[C@H](CO)NC(C)=O)C(C)C)C(=O)N[C@@H](CCC(N)=O)C(=O)N[C@@H](CC(C)C)C(=O)N[C@@H](CCSC)C(=O)N[C@@H](Cc1cnc[nH]1)C(=O)N[C@@H](CC(N)=O)C(=O)N[C@@H](CC(C)C)C(=O)NCC(=O)N[C@@H](CCCCN)C(=O)N[C@@H](Cc1cnc[nH]1)C(=O)N[C@@H](CC(C)C)C(=O)N[C@@H](CC(N)=O)C(=O)N[C@@H](C)C(=O)N[C@@H](CCSC)C(=O)N[C@@H](CCC(=O)O)C(=O)N[C@@H](CCCNC(=N)N)C(=O)N[C@H](C(=O)N[C@@H](CCC(=O)O)C(=O)N[C@@H](Cc1c[nH]c2ccccc12)C(=O)N[C@@H](CC(C)C)C(=O)N[C@@H](CCCNC(=N)N)C(=O)N[C@@H](CCCCN)C(=O)N[C@@H](CCCCN)C(=O)N[C@@H](CC(C)C)C(=O)N[C@@H](CCC(N)=O)C(=O)N[C@@H](CC(=O)O)C(=O)N[C@H](C(=O)N[C@@H](Cc1cnc[nH]1)C(=O)N[C@@H](CC(N)=O)C(=O)N[C@@H](Cc1ccccc1)C(N)=O)C(C)C)C(C)C`, which Activity is on record?
**A.** Non-Toxic

**Q.** With `CC[C@H](C)[C@H](NC(=O)[C@H](CCC(=O)O)NC(=O)[C@H](CO)NC(=O)[C@@H](NC(=O)[C@H](CO)NC(C)=O)C(C)C)C(=O)N[C@@H](C)C(=O)N[C@@H](CC(C)C)C(=O)N[C@@H](CCSC)C(=O)N[C@@H](Cc1cnc[nH]1)C(=O)N[C@@H](CC(N)=O)C(=O)N[C@@H](CC(C)C)C(=O)NCC(=O)N[C@@H](CCCCN)C(=O)N[C@@H](Cc1cnc[nH]1)C(=O)N[C@@H](CC(C)C)C(=O)N[C@@H](CC(N)=O)C(=O)N[C@@H](CO)C(=O)N[C@@H](CCSC)C(=O)N[C@@H](CCC(=O)O)C(=O)N[C@@H](CCCNC(=N)N)C(=O)N[C@H](C(=O)N[C@@H](CCC(=O)O)C(=O)N[C@@H](Cc1c[nH]c2ccccc12)C(=O)N[C@@H](CC(C)C)C(=O)N[C@@H](CCCNC(=N)N)C(=O)N[C@@H](CCCCN)C(=O)N[C@@H](CCCCN)C(=O)N[C@@H](CC(C)C)C(=O)N[C@@H](CCC(N)=O)C(=O)N[C@@H](CC(=O)O)C(=O)N[C@H](C(=O)N[C@@H](Cc1cnc[nH]1)C(=O)N[C@@H](CC(N)=O)C(=O)N[C@@H](Cc1ccccc1)C(N)=O)C(C)C)C(C)C` as the molecule, how does the Activity read?
**A.** Non-Toxic

**Q.** With `CC[C@H](C)[C@H](NC(=O)[C@H](CCC(=O)O)NC(=O)[C@H](CO)NC(=O)[C@@H](NC(=O)[C@H](CO)NC(C)=O)C(C)C)C(=O)N[C@@H](CCC(N)=O)C(=O)N[C@@H](CC(C)C)C(=O)N[C@@H](CCSC)C(=O)N[C@@H](Cc1cnc[nH]1)C(=O)N[C@@H](CC(N)=O)C(=O)N[C@@H](CC(C)C)C(=O)NCC(=O)N[C@@H](CCCCN)C(=O)N[C@@H](Cc1cnc[nH]1)C(=O)N[C@@H](CC(C)C)C(=O)N[C@@H](CC(N)=O)C(=O)N[C@@H](CO)C(=O)N[C@@H](CCSC)C(=O)N[C@@H](CCC(=O)O)C(=O)N[C@@H](CCCNC(=N)N)C(=O)N[C@H](C(=O)N[C@@H](CCC(=O)O)C(=O)N[C@@H](Cc1c[nH]c2ccccc12)C(=O)N[C@@H](CC(C)C)C(=O)N[C@@H](CCCNC(=N)N)C(=O)N[C@@H](CCCCN)C(=O)N[C@@H](CCCCN)C(=O)N[C@@H](CC(C)C)C(=O)N[C@@H](CCC(N)=O)C(=O)N[C@@H](CC(=O)O)C(=O)N[C@@H](C)C(=O)N[C@@H](Cc1cnc[nH]1)C(=O)N[C@@H](CC(N)=O)C(=O)N[C@@H](Cc1ccccc1)C(N)=O)C(C)C` as the molecule, how does the Activity read?
**A.** Non-Toxic

**Q.** With `CC[C@H](C)[C@H](NC(=O)[C@H](CCC(=O)O)NC(=O)[C@H](CO)NC(=O)[C@@H](NC(=O)[C@H](CO)NC(C)=O)C(C)C)C(=O)N[C@@H](CCC(N)=O)C(=O)N[C@@H](CC(C)C)C(=O)N[C@@H](CCSC)C(=O)N[C@@H](Cc1cnc[nH]1)C(=O)N[C@@H](CC(N)=O)C(=O)N[C@@H](C)C(=O)NCC(=O)N[C@@H](CCCCN)C(=O)N[C@@H](Cc1cnc[nH]1)C(=O)N[C@@H](CC(C)C)C(=O)N[C@@H](CC(N)=O)C(=O)N[C@@H](CO)C(=O)N[C@@H](CCSC)C(=O)N[C@@H](CCC(=O)O)C(=O)N[C@@H](CCCNC(=N)N)C(=O)N[C@H](C(=O)N[C@@H](CCC(=O)O)C(=O)N[C@@H](Cc1c[nH]c2ccccc12)C(=O)N[C@@H](CC(C)C)C(=O)N[C@@H](CCCNC(=N)N)C(=O)N[C@@H](CCCCN)C(=O)N[C@@H](CCCCN)C(=O)N[C@@H](CC(C)C)C(=O)N[C@@H](CCC(N)=O)C(=O)N[C@@H](CC(=O)O)C(=O)N[C@H](C(=O)N[C@@H](Cc1cnc[nH]1)C(=O)N[C@@H](CC(N)=O)C(=O)N[C@@H](Cc1ccccc1)C(N)=O)C(C)C)C(C)C` as the molecule, how does the Activity read?
**A.** Non-Toxic

**Q.** Which Activity does the source give for `CC[C@H](C)[C@H](NC(=O)[C@H](CCC(=O)O)NC(=O)[C@H](CO)NC(=O)[C@@H](NC(=O)[C@H](CO)NC(C)=O)C(C)C)C(=O)N[C@@H](CCC(N)=O)C(=O)N[C@@H](CC(C)C)C(=O)N[C@@H](CCSC)C(=O)N[C@@H](Cc1cnc[nH]1)C(=O)N[C@@H](CC(N)=O)C(=O)N[C@@H](CC(C)C)C(=O)NCC(=O)N[C@@H](CCCCN)C(=O)N[C@@H](C)C(=O)N[C@@H](CC(C)C)C(=O)N[C@@H](CC(N)=O)C(=O)N[C@@H](CO)C(=O)N[C@@H](CCSC)C(=O)N[C@@H](CCC(=O)O)C(=O)N[C@@H](CCCNC(=N)N)C(=O)N[C@H](C(=O)N[C@@H](CCC(=O)O)C(=O)N[C@@H](Cc1c[nH]c2ccccc12)C(=O)N[C@@H](CC(C)C)C(=O)N[C@@H](CCCNC(=N)N)C(=O)N[C@@H](CCCCN)C(=O)N[C@@H](CCCCN)C(=O)N[C@@H](CC(C)C)C(=O)N[C@@H](CCC(N)=O)C(=O)N[C@@H](CC(=O)O)C(=O)N[C@H](C(=O)N[C@@H](Cc1cnc[nH]1)C(=O)N[C@@H](CC(N)=O)C(=O)N[C@@H](Cc1ccccc1)C(N)=O)C(C)C)C(C)C` here?
**A.** Non-Toxic

**Q.** With `CC[C@H](C)[C@H](NC(=O)[C@H](CCC(=O)O)NC(=O)[C@H](CO)NC(=O)[C@@H](NC(=O)[C@H](CO)NC(C)=O)C(C)C)C(=O)N[C@@H](CCC(N)=O)C(=O)N[C@@H](CC(C)C)C(=O)N[C@@H](CCSC)C(=O)N[C@@H](Cc1cnc[nH]1)C(=O)N[C@@H](CC(N)=O)C(=O)N[C@@H](CC(C)C)C(=O)NCC(=O)N[C@@H](CCCCN)C(=O)N[C@@H](Cc1cnc[nH]1)C(=O)N[C@@H](CC(C)C)C(=O)N[C@@H](CC(N)=O)C(=O)N[C@@H](CO)C(=O)N[C@@H](CCSC)C(=O)N[C@@H](CCC(=O)O)C(=O)N[C@@H](C)C(=O)N[C@H](C(=O)N[C@@H](CCC(=O)O)C(=O)N[C@@H](Cc1c[nH]c2ccccc12)C(=O)N[C@@H](CC(C)C)C(=O)N[C@@H](CCCNC(=N)N)C(=O)N[C@@H](CCCCN)C(=O)N[C@@H](CCCCN)C(=O)N[C@@H](CC(C)C)C(=O)N[C@@H](CCC(N)=O)C(=O)N[C@@H](CC(=O)O)C(=O)N[C@H](C(=O)N[C@@H](Cc1cnc[nH]1)C(=O)N[C@@H](CC(N)=O)C(=O)N[C@@H](Cc1ccccc1)C(N)=O)C(C)C)C(C)C` as the molecule, how does the Activity read?
**A.** Non-Toxic

**Q.** Which Activity does the source give for `CC[C@H](C)[C@H](NC(=O)[C@H](CCC(=O)O)NC(=O)[C@H](CO)NC(=O)[C@@H](NC(=O)[C@H](CO)NC(C)=O)C(C)C)C(=O)N[C@@H](CCC(N)=O)C(=O)N[C@@H](CC(C)C)C(=O)N[C@@H](CCSC)C(=O)N[C@@H](Cc1cnc[nH]1)C(=O)N[C@@H](CC(N)=O)C(=O)N[C@@H](CC(C)C)C(=O)NCC(=O)N[C@@H](CCCCN)C(=O)N[C@@H](Cc1cnc[nH]1)C(=O)N[C@@H](CC(C)C)C(=O)N[C@@H](CC(N)=O)C(=O)N[C@@H](CO)C(=O)N[C@@H](CCSC)C(=O)N[C@@H](C)C(=O)N[C@@H](CCCNC(=N)N)C(=O)N[C@H](C(=O)N[C@@H](CCC(=O)O)C(=O)N[C@@H](Cc1c[nH]c2ccccc12)C(=O)N[C@@H](CC(C)C)C(=O)N[C@@H](CCCNC(=N)N)C(=O)N[C@@H](CCCCN)C(=O)N[C@@H](CCCCN)C(=O)N[C@@H](CC(C)C)C(=O)N[C@@H](CCC(N)=O)C(=O)N[C@@H](CC(=O)O)C(=O)N[C@H](C(=O)N[C@@H](Cc1cnc[nH]1)C(=O)N[C@@H](CC(N)=O)C(=O)N[C@@H](Cc1ccccc1)C(N)=O)C(C)C)C(C)C` here?
**A.** Non-Toxic
